Tests used:
Type in all cases: in vivo
Plutella xylostella = Plutella xylostella (Diamond back moth) artificial diet test; conditions: 120 h, application rate of 200 ppm, L2 larvae, 5 days after infestation, read-out: effect in at least one of the two categories (mortality or growth inhibition)
Description: Plutella xylostella (Diamond back moth):
24-well microtiter plates with artificial diet were treated with aqueous test solutions prepared from 10,000 ppm DMSO stock solutions by pipetting. After drying, the plates were infested with L2 larvae (10 to 15 per well). The samples were assessed for mortality and growth inhibition in comparison to untreated samples 5 days after infestation. The following compounds gave an effect of at least 80% in at least one of the two categories (mortality or growth inhibition) at an application rate of 200 ppm: 1, 2, 3, 4, 7 and 10.

Tetranychus urticae = Tetranychus urticae (Two-spotted spider mite) bean leaf disc spray test; conditions: foliar, 192 h, application rate of 200 ppm, 8 days after infestation, read-out: mortality on mixed population (mobile stages)
Description: Tetranychus urticae (Two-spotted spider mite):
Bean leaf discs on agar in 24-well microtiter plates were sprayed with aqueous test solutions prepared from 10,000 ppm DMSO stock solutions. After drying the leaf discs were infested with a mite population of mixed ages. The samples were assessed for mortality on mixed population (mobile stages) 8 days after infestation.

Euschistus heros = Euschistus heros (Neotropical Brown Stink Bug) soybean leaf spray test; conditions: 120 h, application rate of 200 ppm, N2 nymphs, 5 days after infestation, read-out: effect in at least one of the two categories (mortality or growth inhibition)
Description: Euschistus heros (Neotropical Brown Stink Bug)
Soybean leaves on agar in 24-well microtiter plates were sprayed with aqueous test solutions prepared from 10,000 ppm DMSO stock solutions. After drying the leaves were infested with N2 nymphs. The samples were assessed for mortality and growth inhibition in comparison to untreated samples 5 days after infestation. The following compounds gave an effect of at least 80% in at least one of the two categories (mortality or growth inhibition) at an application rate of 200 ppm: 1, 3 and 7.

Spodoptera littoralis = Spodoptera littoralis (Egyptian cotton leaf worm) cotton leaf disc spray test; conditions: foliar, 72 h, application rate of 200 ppm, L1 larvae, 3 days after infestation, read-out: control (at least one of mortality, anti-feedant effect, growth inhibition)
Description: Spodoptera littoralis (Egyptian cotton leaf worm)
Cotton leaf discs were placed on agar in 24-well microtiter plates and sprayed with aqueous test solutions prepared from 10,000 ppm DMSO stock solutions. After drying the leaf discs were infested with five L1 larvae. The samples were assessed for mortality, anti-feedant effect, and growth inhibition in comparison to untreated samples 3 days after infestation. Control of Spodoptera littoralis by a test sample is when at least one of mortality, anti-feedant effect, and growth inhibition is higher than the untreated sample.

Diabrotica balteata = Diabrotica balteata (Corn root worm) maize sprout spray test; conditions: 96 h, application rate of 200 ppm, L2 larvae, 4 days after infestation, read-out: effect in at least one of the two categories (mortality or growth inhibition)
Description: Diabrotica balteata, (Corn root worm)
Maize sprouts, placed on an agar layer in 24-well microtiter plates were treated with aqueous test solutions prepared from 10,000 ppm DMSO stock solutions by spraying. After drying, the plates were infested with L2 larvae (6 to 10 per well). The samples were assessed for mortality and growth inhibition in comparison to untreated samples 4 days after infestation. The following compounds gave an effect of at least 80% in at least one of the two categories (mortality or growth inhibition) at an application rate of 200 ppm: 1, 2, 3 and 7.

Thrips tabaci = Thrips tabaci (Onion thrips) sunflower leaf disc spray test; conditions: foliar, 144 h, application rate of 200 ppm, population of mixed ages, 6 days after infestation
Description: Thrips tabaci (Onion thrips):
Sunflower leaf discs were placed on agar in 24-well microtiter plates and sprayed with aqueous test solutions prepared from 10,000 ppm DMSO stock solutions. After drying the leaf discs were infested with a thrips population of mixed ages. The samples were assessed for mortality 6 days after infestation.

Cn1nc(C(F)(F)C(F)(F)F)c(OC(F)F)c1-n1cc(-c2cc(C(=O)NC3CC3)c(C#N)s2)nn1 [Example 1, 2-cyano-N-cyclopropyl-5-[1-[4-(difluoromethoxy)-2-methyl-5-(1,1,2,2,2-pentafluoroethyl)pyrazol-3-yl]triazol-4-yl]thiophene-3-carboxamide]
≥ 80%: percent effect (mortality or growth inhibition) at 200 ppm (Plutella xylostella) | mortality at 200 ppm (Tetranychus urticae) | percent effect (mortality or growth inhibition) at 200 ppm (Euschistus heros) | percent control (mortality, anti-feedant effect or growth inhibition) at 200 ppm (Spodoptera littoralis) | percent effect (mortality or growth inhibition) at 200 ppm (Diabrotica balteata) | mortality at 200 ppm (Thrips tabaci)

CN(C(=O)c1cc(-c2cn(-c3c(OC(F)F)c(C(F)(F)C(F)(F)F)nn3C)nn2)sc1C#N)C1CC1 [Example 2, 2-cyano-N-cyclopropyl-5-[1-[4-(difluoromethoxy)-2-methyl-5-(1,1,2,2,2-pentafluoroethyl)pyrazol-3-yl]triazol-4-yl]-N-methyl-thiophene-3-carboxamide]
≥ 80%: percent effect (mortality or growth inhibition) at 200 ppm (Plutella xylostella) | mortality at 200 ppm (Tetranychus urticae) | percent control (mortality, anti-feedant effect or growth inhibition) at 200 ppm (Spodoptera littoralis) | percent effect (mortality or growth inhibition) at 200 ppm (Diabrotica balteata) | mortality at 200 ppm (Thrips tabaci)

CCN(C(=O)c1cc(-c2cn(-c3c(OC(F)F)c(C(F)(F)C(F)(F)F)nn3C)nn2)sc1C#N)C1CC1 [Example 3, 2-cyano-N-cyclopropyl-5-[1-[4-(difluoromethoxy)-2-methyl-5-(1,1,2,2,2-pentafluoroethyl)pyrazol-3-yl]triazol-4-yl]-N-ethyl-thiophene-3-carboxamide]
≥ 80%: percent effect (mortality or growth inhibition) at 200 ppm (Plutella xylostella) | mortality at 200 ppm (Tetranychus urticae) | percent effect (mortality or growth inhibition) at 200 ppm (Euschistus heros) | percent control (mortality, anti-feedant effect or growth inhibition) at 200 ppm (Spodoptera littoralis) | percent effect (mortality or growth inhibition) at 200 ppm (Diabrotica balteata) | mortality at 200 ppm (Thrips tabaci)

Cn1nc(C(F)(F)C(F)(F)F)c(OC(F)F)c1-n1cc(-c2cc(C(=O)NC3(C#N)CC3)c(C#N)s2)nn1 [Example 4, 2-cyano-N-(1-cyanocyclopropyl)-5-[1-[4-(difluoromethoxy)-2-methyl-5-(1,1,2,2,2-pentafluoroethyl)pyrazol-3-yl]triazol-4-yl]thiophene-3-carboxamide]
≥ 80%: percent effect (mortality or growth inhibition) at 200 ppm (Plutella xylostella) | mortality at 200 ppm (Tetranychus urticae) | percent control (mortality, anti-feedant effect or growth inhibition) at 200 ppm (Spodoptera littoralis) | mortality at 200 ppm (Thrips tabaci)

Cn1nc(C(F)(F)C(F)(F)F)c(OC(F)F)c1-n1cc(-c2cc(C(=O)NC3CC3)c(Cl)s2)nn1 [Example 7, 2-chloro-N-cyclopropyl-5-[1-[4-(difluoromethoxy)-2-methyl-5-(1,1,2,2,2-pentafluoroethyl)pyrazol-3-yl]triazol-4-yl]thiophene-3-carboxamide]
≥ 80%: percent effect (mortality or growth inhibition) at 200 ppm (Plutella xylostella) | percent effect (mortality or growth inhibition) at 200 ppm (Euschistus heros) | percent control (mortality, anti-feedant effect or growth inhibition) at 200 ppm (Spodoptera littoralis) | percent effect (mortality or growth inhibition) at 200 ppm (Diabrotica balteata) | mortality at 200 ppm (Thrips tabaci)

Cn1nc(C(F)(F)C(F)(F)F)c(OC(F)F)c1-n1cc(-c2cc(C(=O)NC3(C#N)CC3)c(Cl)s2)nn1 [Example 10, 2-chloro-N-(1-cyanocyclopropyl)-5-[1-[4-(difluoromethoxy)-2-methyl-5-(1,1,2,2,2-pentafluoroethyl)pyrazol-3-yl]triazol-4-yl]thiophene-3-carboxamide]
≥ 80%: percent effect (mortality or growth inhibition) at 200 ppm (Plutella xylostella) | percent control (mortality, anti-feedant effect or growth inhibition) at 200 ppm (Spodoptera littoralis) | mortality at 200 ppm (Thrips tabaci)

From patent publication US11142519B2, “Pesticidally active pyrazole derivatives” (SYNGENTA PARTICIPATIONS AG, priority 2017, dated 2021)
